# Measurements: BindingDB's records for PubMed 37122541 (Emory University, 2023)
# Target: rRNA adenine N-6-methyltransferase ErmC (Staphylococcus aureus)
# Assay: Inhibition of Staphylococcus aureus ErmC methyltransferase
structure (smiles),measurement,value
CC(C)c1ccc(NC(=S)N/N=C/c2cc(Cl)cc(Cl)c2O)cc1,IC50,450 nM
